Structures are written as SMILES.

This test deals with T1, mGlyT-1b (Mus musculus, UniProt P28571).
T1 construct: host or cells: Flp-in CHO cells, stably transfected
T1 sequence (P28571 1-651 isoform P28571-2): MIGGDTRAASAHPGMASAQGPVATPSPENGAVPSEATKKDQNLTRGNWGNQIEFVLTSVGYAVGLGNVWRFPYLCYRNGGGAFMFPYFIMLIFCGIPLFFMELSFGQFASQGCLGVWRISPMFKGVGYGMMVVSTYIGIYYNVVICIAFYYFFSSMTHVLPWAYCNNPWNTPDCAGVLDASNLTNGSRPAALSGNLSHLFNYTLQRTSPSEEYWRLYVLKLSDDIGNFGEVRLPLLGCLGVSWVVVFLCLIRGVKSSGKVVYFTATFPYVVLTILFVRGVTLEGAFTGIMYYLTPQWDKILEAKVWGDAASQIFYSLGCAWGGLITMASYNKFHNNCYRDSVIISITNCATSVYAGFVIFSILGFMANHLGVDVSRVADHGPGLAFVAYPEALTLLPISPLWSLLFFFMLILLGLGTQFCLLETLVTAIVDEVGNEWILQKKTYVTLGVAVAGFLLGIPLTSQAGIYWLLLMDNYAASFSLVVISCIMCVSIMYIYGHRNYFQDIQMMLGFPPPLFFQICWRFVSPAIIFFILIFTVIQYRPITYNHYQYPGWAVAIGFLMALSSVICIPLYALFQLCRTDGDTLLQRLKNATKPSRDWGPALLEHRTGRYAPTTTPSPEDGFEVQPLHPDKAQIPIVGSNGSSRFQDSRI
Description: Glycine uptake inhibition assay (mGlyT-1b). In kind it is cell-based. The settings on record: inhibition of [3H]-glycine uptake in Flp-in-CHO cells stably transfected with mGlyT1b cDNA; 20 min at 22° C. As to the method: DMEM complete medium: Nutrient mixture F-12 (Gibco Life-technologies), fetal bovine serum (FBS) 5%, (Gibco life technologies), Penicillin/Streptomycin 1% (Gibco life technologies), Hygromycin 0.6 mg/ml (Gibco life technologies), Glutamine 1 mM Gibco life technologies)
Uptake buffer (UB): 150 mM NaCl, 10 mM Hepes-Tris, pH 7.4, 1 mM CaCl2, 2.5 mM KCl, 2.5 mM MgSO4, 10 mM (+) D-glucose. Flp-in™—CHO (Invitrogen Cat n° R758-07)cells stably transfected with mGlyT1b cDNA.
Glycine uptake inhibition assay (mGlyT-1b)
On Day 1 mammallian cells, (Flp-in™—CHO), transfected with mGlyT-1b cDNA, were plated at the density of 40,000 cells/well in complete F-12 medium, without hygromycin in 96-well culture plates. On day 2, the medium was aspirated and the cells were washed twice with uptake buffer (UB). The cells were then incubated for 20 min at 22° C. with either (i) no potential competitor, (ii) 10 mM non-radioactive glycine, (iii) a concentration of a potential inhibitor. A range of concentrations of the potential inhibitor was used to generate data for calculating the concentration of inhibitor resulting in 50% of the effect (e.g. IC50, the concentration of the competitor inhibiting glycine uptake of 50%). A solution was then immediately added containing [^3H]-glycine 60 nM (11-16 Ci/mmol) and 25 μM non-radioactive glycine. The plates were incubated with gentle shaking and the reaction was stopped by aspiration of the mixture and washing (three times) with ice-cold UB. The cells were lysed with scintillation liquid, shaken 3 hours and the radioactivity in the cells was counted using a scintillation counter.
`CC(=O)c1ccc(N2CCN(C(=O)c3cc([N+](=O)[O-])ccc3NC(C)(C)C)CC2)c(F)c1` [Example 176, 1-{3-Fluoro-4-[4-(2-tert.-butylamino-5-nitro-benzoyl)-piperazin-1-yl]-phenyl}-ethanone] had an IC50 of 0.02 µM.

For the molecule `CNS(=O)(=O)c1ccc(N2CCCC2)c(C(=O)N2CCN(c3ccc(C#N)cc3)CC2)c1` [Example 233, 3-[4-(4-Cyano-phenyl)-piperazine-1-carbonyl]-N-methyl-4-pyrrolidin-1-yl-benzenesulfonamide], it took 0.016 µM to reach half-maximal inhibition (IC50).

Molecule `CC(=O)c1ccc(N2CCN(C(=O)c3cc([N+](=O)[O-])ccc3N3CCCCC3C)CC2)c(F)c1` (stereo not shown) [Example 35, 1-(3-Fluoro-4-{4-[2-(2-methyl-piperidin-1-yl)-5-nitro-benzoyl]-piperazin-1-yl}-phenyl)-ethanone] yielded a 50% inhibitory concentration (IC50) of 0.006 µM. This IC50 lies about 2.7-fold lower than the previous one. The same measure for `CC(=O)c1ccc(N2CCN(C(=O)c3cc([N+](=O)[O-])ccc3N3CCC(C)CC3)CC2)c(F)c1` [Example 36, 1-(3-Fluoro-4-{4-[2-(4-methyl-piperidin-1-yl)-5-nitro-benzoyl]-piperazin-1-yl}-phenyl)-ethanone]: 0.014 µM; for `N#Cc1cc(C(F)(F)F)ccc1N1CCN(C(=O)c2cc([N+](=O)[O-])ccc2N2CCOCC2)CC1` [Example 186, 2-[4-(2-Morpholin-4-yl-5-nitro-benzoyl)-piperazin-1-yl]-5-trifluoromethyl-benzonitrile]: 0.015 µM. For the molecule `CNS(=O)(=O)c1ccc(N2CCOCC2)c(C(=O)N2CCN(c3ccc(C(F)(F)F)cc3F)CC2)c1` [Example 263, 3-[4-(2-Fluoro-4-trifluoro-methyl-phenyl)-piperazine-1-carbonyl]-N-methyl-4-morpholin-4-yl-benzene-sulfonamide], the IC50 amounted to 0.01 µM. `CC(=O)c1ccc(N2CCN(C(=O)c3cc([N+](=O)[O-])ccc3N3CCSCC3)CC2)c(F)c1` [Example 42, 1-{3-Fluoro-4-[4-(5-nitro-2-thiomorpholin-4-yl-benzoyl)-piperazin-1-yl]-phenyl}-ethanone] yielded an IC50 of 0.0035 µM. The figure for `CC(=O)c1ccc(N2CCN(C(=O)c3cc(S(C)(=O)=O)ccc3N3CCCC3)CC2)c(F)c1` [Example 83, 1-{3-Fluoro-4-[4-(5-methanesulfonyl-2-pyrrolidin-1-yl-benzoyl)-piperazin-1-yl]-phenyl}-ethanone] is 0.019 µM; for `CC(=O)c1ccc(N2CCN(C(=O)c3cc([N+](=O)[O-])ccc3N3CCOCC3)CC2)c(F)c1` [Example 1, 1-{4-[4-(2-Morpholin-4-yl-5-nitro-benzoyl)-piperazin-1-yl]-3-fluoro-phenyl}-ethanone] it is 0.015 µM; for `CC(=O)c1ccc(N2CCN(C(=O)c3cc([N+](=O)[O-])ccc3N3CCCCCC3)CC2)c(F)c1` [Example 28, 1-{4-[4-(2-Azepan-1-yl-5-nitro-benzoyl)-piperazin-1-yl]-3-fluoro-phenyl}-ethanone] it is 0.0033 µM. Molecule `CC(=O)c1ccc(N2CCN(C(=O)c3cc([N+](=O)[O-])ccc3N3CCCC3C)CC2)c(F)c1` (stereo not shown) [Example 38, 1-(3-Fluoro-4-{4-[2-(2-methyl-pyrrolidin-1-yl)-5-nitro-benzoyl]-piperazin-1-yl}-phenyl)-ethanone] showed an IC50 of 0.008 µM. Molecule `CNS(=O)(=O)c1ccc(N2CCCCC2)c(C(=O)N2CCN(c3ccc(C#N)cc3F)CC2)c1` [Example 247, 3-[4-(4-Cyano-2-fluoro-phenyl)-piperazine-1-carbonyl]-N-methyl-4-piperidin-1-yl-benzene-sulfonamide] came in with an IC50 of 0.014 µM. The same measure for `CS(=O)(=O)c1ccc(N2CCCCC2)c(C(=O)N2CCN(c3ccc(C(F)(F)F)cc3F)CC2)c1` [Example 219, [4-(2-Fluoro-4-trifluoromethyl-phenyl)piperazin-1-yl]-(5-methanesulfonyl-2-piperidin-1-yl-phenyl)-methanone]: 0.017 µM; for `CC(=O)c1ccc(N2CCN(C(=O)c3cc([N+](=O)[O-])ccc3NC(C)C)CC2)c(F)c1` [Example 18, 1-{3-Fluoro-4-[4-(2-isopropylamino-5-nitro-benzoyl)-piperazin-1-yl]-phenyl}-ethanone]: 0.0025 µM. `CC(=O)c1ccc(N2CCN(C(=O)c3cc([N+](=O)[O-])ccc3N3CCCC(O)C3)CC2)c(F)c1` (stereo not shown) [Example 45, 1-(3-Fluoro-4-{4-[2-(3-hydroxy-piperidin-1-yl)-5-nitro-benzoyl]-piperazin-1-yl}-phenyl)-ethanone] returned a concentration for half-maximal inhibition (IC50) of 0.019 µM. The same measure for `CC(=O)c1ccc(N2CCN(C(=O)c3cc([N+](=O)[O-])ccc3NC3CCCC3)CC2)c(F)c1` [Example 21, 1-{4-[4-(2-Cyclopentylamino-5-nitro-benzoyl)-piperazin-1-yl]-3-fluoro-phenyl}-ethanone]: 0.0023 µM; for `CC(=O)c1ccc(N2CCN(C(=O)c3cc([N+](=O)[O-])ccc3NC3CCC3)CC2)c(F)c1` [Example 20, 1-{4-[4-(2-Cyclobutylamino-5-nitro-benzoyl)-piperazin-1-yl]-3-fluoro-phenyl}-ethanone]: 0.0021 µM; for `CCN(CC)c1ccc([N+](=O)[O-])cc1C(=O)N1CCN(c2ccc(C(C)=O)cc2F)CC1` [Example 11, 1-{4-[4-(2-Diethylamino-5-nitro-benzoyl)-piperazin-1-yl]-3-fluoro-phenyl}-ethanone]: 0.015 µM. Take `C=CCN(C)c1ccc([N+](=O)[O-])cc1C(=O)N1CCN(c2ccc(C(C)=O)cc2F)CC1` [Example 43, 1-(4-{4-[2-(Allyl-methyl-amino)-5-nitro-benzoyl]-piperazin-1-yl}-3-fluoro-phenyl)-ethanone]: it took 0.009 µM to reach half-maximal inhibition (IC50). This IC50 is about 1.7-fold lower than that of the molecule before.

Source of the values: patent US7427612B2, “Benzoyl-piperazine derivatives” (Hoffmann-La Roche Inc., priority 2003, dated 2008).
